Earlier results on 29 compounds are cited in patent US20240050950A1, “GRADIENT-BASED MICROFLUIDIC CIRCUIT, DEVICE, AND METHOD FOR PERFORMING AN ASSAY” (priority 2020, published 2024).

Counter-ions that a name gives are not always drawn. Numbered stars: 1 amine (or outer) side, 2 acyl side, 3 side chain; on linkers, the order of the positions; unused ones are H or OH. Bridge positions count the residues as written; N and C are the ends. Square brackets hold non-standard residues; d marks the D form. Peptide text beside a SMILES is read from it. I, II: the chains in the order shown. Actinocin(9to1) = Cc1c2oc3c(C)ccc(C(=O)[*:1])c3nc-2c(C(=O)[*:2])c(N)c1=O; Phe(ol) = N[C@H](CO)Cc1ccccc1; NMeV = CN[C@H](C(=O)O)C(C)C; Aib = CC(C)(N)C(=O)O; Sar = CNCC(=O)O

For the first series the following is noted: Table 1, antimicrobial agents/drugs; cited from earlier work.
For the compound “4-Hydroxytamoxifen [4-Hydroxytamoxifen ((Z)-Afimoxifene)]”, the Molar volume is listed as 354.6 ± 3.0 cm^3.

Take `OC[C@H]1NC[C@@H](O)[C@@H](O)[C@@H]1O` [1-Deoxymannojirimycin]: the Molar volume is 112.0 ± 3.0 cm^3.

`Cc1c2oc3c(C)c(N)cc(C(=O)N[C@@H]4C(=O)N[C@H](C(C)C)C(=O)N5CCC[C@H]5C(=O)N(C)CC(=O)N(C)[C@@H](C(C)C)C(=O)O[C@@H]4C)c3nc-2c(C(=O)N[C@@H]2C(=O)N[C@H](C(C)C)C(=O)N3CCC[C@H]3C(=O)N(C)CC(=O)N(C)[C@@H](C(C)C)C(=O)O[C@@H]2C)c(N)c1=O` [7-Aminoactinomycin D (7-ADD), 7-Aminoactinomycin D]: the Molar volume is given as 877.3 ± 7.0 cm^3.

For `CC(=O)OCC1=C(C(=O)O)N2C(=O)[C@@H](N)[C@H]2SC1` [7-Aminocephalosporanic acid (7-ACA), 7-Aminocephalosporanic acid], the Molar volume is given as 170.0 ± 5.0 cm^3.

For `CC1=C(C(=O)O)N2C(=O)[C@@H](N)[C@H]2SC1` [7-Aminodesacetoxycephalosporanic acid], the Molar volume is given as 134.0 ± 5.0 cm^3.

`CC(=O)O[C@@]12CO[C@@H]1C[C@H](O)[C@@]1(C)C(=O)[C@H](O)C3=C(C)[C@@H](O)C[C@@](O)([C@@H](OC(=O)c4ccccc4)[C@H]21)C3(C)C` [10-Deacetylbaccatin III]: the Molar volume is 385.5 ± 5.0 cm^3.

`C=CCNC1=C2C[C@@H](C)C[C@H](OC)[C@H](O)[C@@H](C)/C=C(\C)[C@H](OC(N)=O)[C@@H](OC)/C=C\C=C(/C)C(=O)NC(=CC1=O)C2=O` [17-(Allylamino)-17-demethoxygeldanamycin]: the Molar volume was 483.3 ± 5.0 cm^3.

On to `CC1(C)S[C@@H]2[C@H](N)C(=O)N2[C@H]1C(=O)O` [(+)-6-Aminopenicillanic acid (6-APA), (+)-6-Aminopenicillanic acid], for which the Molar volume is 142.0 ± 5.0 cm^3.

For the compound `CC[C@@]1(O)C(=O)OCc2c1cc1n(c2=O)Cc2cc3ccccc3nc2-1` [(S)-(+)-Camptothecin (Camptothecin), (S)-(+)-Camptothecin], the Molar volume is reported as 230.2 ± 5.0 cm^3.

`Cc1c2oc3c(C)ccc(C(=O)N[C@@H]4C(=O)N[C@H](C(C)C)C(=O)N5CCC[C@H]5C(=O)N(C)CC(=O)N(C)[C@@H](C(C)C)C(=O)O[C@@H]4C)c3nc-2c(C(=O)N[C@@H]2C(=O)N[C@H](C(C)C)C(=O)N3CCC[C@H]3C(=O)N(C)CC(=O)N(C)[C@@H](C(C)C)C(=O)O[C@@H]2C)c(N)c1=O` [Actinomycin D] (I: T[dV]P[Sar][NMeV] / II: T[dV]P[Sar][NMeV]; ester I:1-I:C, II:1-II:C; linker I:N-II:N via Actinocin(9to1)): the Molar volume is given as 880.6 ± 7.0 cm^3.

Regarding `CCCCC[C@H](CC(=O)NO)C(=O)N[C@H](C(=O)N1CCC[C@H]1CO)C(C)C` [Actinonin], the Molar volume is recorded as 338.1 ± 3.0 cm^3.

Consider `Nc1ncnc2c1ncn2[C@@H]1O[C@H](CO)[C@@H](O)[C@@H]1O` [Adenine 9-β-D-arabinofuranoside], for which the Molar volume is given as 128.1 ± 7.0 cm^3.

In the case of `CC(=O)NC(C)(C)C(=O)N1CCC[C@H]1C(=O)NC(C)(C)C(=O)N[C@@H](C)C(=O)NC(C)(C)C(=O)N[C@@H](C)C(=O)N[C@@H](CCC(N)=O)C(=O)NC(C)(C)C(=O)N[C@H](C(=O)NC(C)(C)C(=O)NCC(=O)N[C@@H](CC(C)C)C(=O)NC(C)(C)C(=O)N1CCC[C@H]1C(=O)N[C@H](C(=O)NC(C)(C)C(=O)NC(C)(C)C(=O)N[C@@H](CCC(=O)O)C(=O)N[C@@H](CCC(N)=O)C(=O)N[C@H](CO)Cc1ccccc1)C(C)C)C(C)C` [Alamethicin] (Ac-[Aib]P[Aib]A[Aib]AQ[Aib]V[Aib]GL[Aib]PV[Aib][Aib]EQ[Phe(ol)]), the Molar volume is 1583.4 ± 3.0 cm^3.

Consider `CC(C)C[C@@H](N)[C@H](O)C(=O)N[C@H](C(=O)N[C@H](C(=O)N[C@@H](CC(=O)O)C(=O)O)C(C)C)C(C)C` [Amastatin], for which the Molar volume is given as 386.4 ± 3.0 cm^3.

Take `NCC[C@H](O)C(=O)N[C@@H]1C[C@H](N)[C@@H](O[C@H]2O[C@H](CN)[C@@H](O)[C@H](O)[C@H]2O)[C@H](O)[C@H]1O[C@H]1O[C@H](CO)[C@@H](O)[C@H](N)[C@H]1O` [Amikacin]: the Molar volume is listed as 363.9 ± 5.0 cm^3.

As for `CC1(C)S[C@@H]2[C@H](NC(=O)[C@H](N)c3ccc(O)cc3)C(=O)N2[C@H]1C(=O)O` [Amoxicillin], the Molar volume was 236.2 ± 5.0 cm^3.

Take `C[C@@H]1[C@H](O)[C@@H](C)/C=C/C=C/C=C/C=C/C=C/C=C/C=C/[C@H](O[C@@H]2O[C@H](C)[C@@H](O)[C@H](N)[C@@H]2O)C[C@@H]2O[C@](O)(C[C@@H](O)C[C@@H](O)[C@H](O)CC[C@@H](O)C[C@@H](O)CC(=O)O[C@H]1C)C[C@H](O)[C@H]2C(=O)O` [Amphotericin B (Fungizone), Amphotericin B]: the Molar volume is 689.4 ± 5.0 cm^3.

As to `CC[C@H]1OC(=O)[C@H](C)[C@@H](O[C@H]2C[C@@](C)(OC)[C@@H](O)[C@H](C)O2)[C@H](C)[C@@H](O[C@@H]2O[C@H](C)C[C@H](N(C)C)[C@H]2O)[C@@]2(C)C[C@@H](C)[C@@]3(O[C@@]1(C)[C@H](O)[C@H]3C)O2` [Anhydroerythromycin A], the Molar volume was 590.7 ± 5.0 cm^3.

The series is the same for the next values; noted with them: Table 2, anticancer drugs; cited from earlier work.
Regarding `CC(=O)O[C@H]1CC[C@@]2(C)C(=CC[C@@H]3[C@@H]2CC[C@]2(C)C(c4cccnc4)=CC[C@@H]32)C1` [Abiraterone acetate (Zytiga), Abiraterone acetate], the Molar volume is reported as 343.0 ± 5.0 cm^3.

On to `Cc1c2oc3c(C)ccc(C(=O)N[C@@H]4C(=O)N[C@H](C(C)C)C(=O)N5CCC[C@H]5C(=O)N(C)CC(=O)N(C)[C@@H](C(C)C)C(=O)O[C@@H]4C)c3nc-2c(C(=O)N[C@@H]2C(=O)N[C@H](C(C)C)C(=O)N3CCC[C@H]3C(=O)N(C)CC(=O)N(C)[C@@H](C(C)C)C(=O)O[C@@H]2C)c(N)c1=O` [Actinomycin D] (I: T[dV]P[Sar][NMeV] / II: T[dV]P[Sar][NMeV]; ester I:1-I:C, II:1-II:C; linker I:N-II:N via Actinocin(9to1)), for which the Molar volume is listed as 880.6 ± 7.0 cm^3.

For the compound `CO[C@H]1C[C@@H]2CC[C@@H](C)[C@@](O)(O2)C(=O)C(=O)N2CCCC[C@H]2C(=O)O[C@H]([C@H](C)C[C@@H]2CC[C@@H](OCCO)[C@H](OC)C2)CC(=O)[C@H](C)/C=C(\C)[C@@H](O)[C@@H](OC)C(=O)[C@H](C)C[C@H](C)/C=C/C=C/C=C/1C` [Afinitor (Everolimus), Everolimus], the Molar volume is given as 811.2 ± 5.0 cm^3.

In the case of `CC(C)Cn1cnc2c(N)nc3ccccc3c21` [Aldara (Imiquimod), Imiquimod], the Molar volume is recorded as 187.7 ± 7.0 cm^3.

Regarding `Nc1nc2[nH]cc(CCc3ccc(C(=O)N[C@@H](CCC(=O)O)C(=O)O)cc3)c2c(=O)[nH]1` [Alimta (Pemetrexed Disodium), Pemetrexed Disodium], the Molar volume was 268.0 ± 7.0 cm^3.

For `COc1c(OCCCN2CCOCC2)ccc2c1N=C(NC(=O)c1cnc(N)nc1)N1CCN=C21` [Aliqopa (Copanlisib Hydrochloride), Copanlisib Hydrochloride], the Molar volume was 317.6 ± 7.0 cm^3.

`O=C1c2cccc3c2[C@H](CCC3)CN1[C@@H]1CN2CCC1CC2` [Aloxi (Palonosetron Hydrochloride), Palonosetron Hydrochloride]: the Molar volume is reported as 238.6 ± 5.0 cm^3.

As for `NCCCNCCSP(=O)(O)O` [Amifostine], the Molar volume is given as 156.6 ± 3.0 cm^3.

For `CC(C)(C#N)c1cc(Cn2cncn2)cc(C(C)(C)C#N)c1` [Anastrozole], the Molar volume is 270.2 ± 7.0 cm^3.

The series is the same for the next values; noted with them: Table 3, antifungal drugs and other molecules; cited from earlier work.
With `c1ccc2[nH]c(-c3cscn3)nc2c1` [2-(4-Thiazolyl)benzimidazole], the Molar volume is 143.0 ± 3.0 cm^3.

As for `C=CCc1ccc(O)c(-c2cc(CC=C)ccc2O)c1` [5,5′-Diallyl-2,2′-biphenyldiol], the Molar volume is given as 240.4 ± 3.0 cm^3.

`O=[N+]([O-])C1(Br)COCOC1` [5-Bromo-5-nitro-1,3-dioxane]: the Molar volume is given as 115.3 ± 5.0 cm^3.
